Source: PubChem BioAssay AID1552 (Sanford-Burnham Center for Chemical Genomics, 2009)
The source made the active and inactive calls. How the calls were made is not given here.

Target: Ubiquitin-conjugating enzyme E2 N (Homo sapiens) (UniProt P61088)
Assay: NMR detection of UBE2N ligand binding – biophysical, purified protein (AID 1552)
Details: NMR binding to purified UBE2N

Sequence of Ubiquitin-conjugating enzyme E2 N (Homo sapiens) (P61088 whole entry, looked up): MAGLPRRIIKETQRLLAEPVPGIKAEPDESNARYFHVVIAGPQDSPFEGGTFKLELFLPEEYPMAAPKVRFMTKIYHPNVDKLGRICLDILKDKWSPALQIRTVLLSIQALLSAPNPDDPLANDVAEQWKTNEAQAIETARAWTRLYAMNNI

SMILES | Kd
O=C1NC(=O)/C(=C\c2ccco2)S1 | > 4 mM (inactive)
COC(=O)c1ccc(Cl)c(NC(C)=O)c1 | > 4 mM (inactive)
CC(C)CCCC(C)[C@H]1CCC2C3CC=C4C[C@@H](O)CC[C@]4(C)C3CC[C@@]21C (stereo not given in full) | > 4 mM (inactive)
COc1cc2c(cc1-c1cc3cc4ccoc4cc3oc1=O)OCO2 | > 4 mM (inactive)
Cc1n[nH]c(=S)[nH]c1=O | > 4 mM (inactive)
C=C1C2CC[C@@]3(C)[C@H](c4ccoc4)OC(=O)C[C@]13O[C@H]1CC(=O)C(C)(C)C(CC(=O)OC)C21C (stereo not given in full) | > 4 mM (inactive)
C=C1CCC2[C@](C)(CO)[C@H](O)CC[C@@]2(C)[C@@H]1C/C=C1/C(=O)OC[C@H]1O (stereo not given in full) | > 4 mM (inactive)
NC(=O)C1CCN(C(=O)c2ccco2)CC1 | > 4 mM (inactive)
C=C1C(N)CC2CC1C2(C)C (stereo not given) | > 4 mM (inactive)
CC(C)NC(=O)c1cc(=O)n(C)c(=O)n1C | > 4 mM (inactive)
CC(C)c1ccc2c(c1)CCC1[C@](C)(CN)CCC[C@]21C (stereo not given in full) | > 4 mM (inactive)
CNC(=O)n1ccc(C(=O)N2CCCCC2)n1 | > 4 mM (inactive)
O=c1/c(=C/c2ccccc2F)sc2ncnn12 | > 4 mM (inactive)
O=C1c2ccccc2C(=O)N1OCc1ccccc1 | > 4 mM (inactive)
COc1ccc(NC(=O)CSc2nccc(=O)[nH]2)cc1 | > 4 mM (inactive)
O=C(O[C@@H]1Cc2c(O)cc(O)cc2O[C@@H]1c1cc(O)c(O)c(O)c1)c1cc(O)c(O)c(O)c1 | > 4 mM (inactive)
Cc1oc(-c2ccccc2)nc1CCO | > 4 mM (inactive)
Nc1ccc(Cc2ccc(N)cc2)cc1 | > 4 mM (inactive)
O=C(O)c1cccc(O)c1O | > 4 mM (inactive)
Nc1cccc(-n2cnnn2)c1 | > 4 mM (inactive)
CC(C)(C)CC(=O)NC1=NCCS1 | > 4 mM (inactive)
O=C(O)Cn1nnn(-c2ccccc2)c1=S | > 4 mM (inactive)
CCn1c2ccccc2c2nn(C)c(=N)nc21 | > 4 mM (inactive)

SMILES | Kd
C(=N\n1cnnc1)/c1cccs1 | > 4 mM (inactive)
OC/C=C/c1ccc(O)c(O)c1 | > 4 mM (inactive)
CCCc1cc2c(c(NC(C)=O)n1)c(=O)oc1ccccc12 | > 4 mM (inactive)
Nc1cc(=O)[nH]c(SCC(=O)Nc2nccs2)n1 | > 4 mM (inactive)
Nc1nncn1C(=O)c1ccccc1Cl | > 4 mM (inactive)
CC(C)=CCC/C(C)=C/CC/C(C)=C/CC/C(C)=C/CC/C(C)=C/CC/C(C)=C/CC/C(C)=C/CC/C(C)=C/CC/C(C)=C/CO | > 4 mM (inactive)
O=C(CN1CCOCC1)Nc1cccc(Br)c1 | > 4 mM (inactive)
CN(C)C(=O)Oc1ccc(-c2nnco2)cc1 | > 4 mM (inactive)
NC(=O)C1CCN(CC2CC=CCC2)CC1 (stereo not given) | > 4 mM (inactive)
CCSc1n[nH]c(=O)[nH]c1=O | > 4 mM (inactive)
Cc1nn(-c2ccccc2)nc1CN | > 4 mM (inactive)
O=C(CSC1=NCCS1)N1CCc2ccccc21 | > 4 mM (inactive)
N#CCSc1nnc2ccc3ccccc3n12 | > 4 mM (inactive)
COc1cc(OC)c(-c2nc3cnccc3n2C)cc1OC | > 4 mM (inactive)
c1ccc(SCc2nc(-c3ccncc3)no2)cc1 | > 4 mM (inactive)
COC(=O)c1ccc2ncccc2c1 | > 4 mM (inactive)
O=C(OC[C@H]1O[C@H](OC(=O)c2cc(O)c(O)c(OC(=O)c3cc(O)c(O)c(O)c3)c2)[C@H](OC(=O)c2cc(O)c(O)c(OC(=O)c3cc(O)c(O)c(O)c3)c2)[C@@H](OC(=O)c2cc(O)c(O)c(OC(=O)c3cc(O)c(O)c(O)c3)c2)[C@@H]1OC(=O)c1cc(O)c(O)c(OC(=O)c2cc(O)c(O)c(O)c2)c1)c1cc(O)c(O)c(OC(=O)c2cc(O)c(O)c(O)c2)c1 | > 4 mM (inactive)
OC1COCc2nc3ccccc3n2C1 (stereo not given) | > 4 mM (inactive)
O=C1CSC2(CN3CCC2CC3)N1 (stereo not given) | > 4 mM (inactive)
C[n+]1cccc(C(=O)[O-])c1 | > 4 mM (inactive)
CCCCCCCCCCCCCCC(C(=O)O)C(O)(CC(=O)OC)C(=O)O (stereo not given) | > 4 mM (inactive)
CC(=O)NCC1(c2ccccc2)CCOCC1 | > 4 mM (inactive)
Cc1nc2[nH]onc2c2nccc(=O)c12 | > 4 mM (inactive)

SMILES | Kd
c1ccc(CCN2CCN(CCc3ccccn3)CC2)nc1 | > 4 mM (inactive)
CC(NC(=O)c1ccco1)c1ccc2c(c1)OCCO2 (stereo not given) | > 4 mM (inactive)
CC1(C)C=Cc2c(cc3occ(-c4ccc5c(c4)OCO5)c(=O)c3c2O)O1 | > 4 mM (inactive)
O=C(CSc1nc2ccccc2[nH]1)N1CCCCC1 | > 4 mM (inactive)
Cc1nnc(C)n1/N=C/c1cccs1 | > 4 mM (inactive)
COc1cc(OC)cc(-c2nc(N)n[nH]2)c1 | > 4 mM (inactive)
N#Cc1cc2ccccc2nc1N | > 4 mM (inactive)
O=C(/C=C/c1ccco1)NC1=NCCS1 | > 4 mM (inactive)
O=C(c1ccccc1)c1cncc(Br)c1 | > 4 mM (inactive)
CS(=O)(=O)c1ccc(N)cc1 | > 4 mM (inactive)
O=C(Nc1cccnc1)c1c(F)cccc1F | > 4 mM (inactive)
Nc1nnc(C(F)(F)F)s1 | > 4 mM (inactive)
Cc1ccccc1NC(=O)C1CC(=O)N=C(N)S1 (stereo not given) | > 4 mM (inactive)
COc1ccc(C2(C)NC(=O)NC2=O)cc1 (stereo not given) | > 4 mM (inactive)
Cc1cc(NC(=O)c2cc(C)on2)no1 | > 4 mM (inactive)
CC(=O)c1ccc(-n2ccnc2)cc1 | > 4 mM (inactive)
CC(=O)Nn1c(=O)[nH]c2ccccc2c1=O | > 4 mM (inactive)
CC(=O)Nc1ccc(NC(C)=O)c(C(F)(F)F)c1 | > 4 mM (inactive)
O=C1NC(=O)C(Cc2cccs2)C(=O)N1 | > 4 mM (inactive)
COc1ccc2cc1Oc1ccc(cc1)C[C@H]1c3cc(c(OC)cc3CCN1C)Oc1c(OC)c(OC)cc3c1[C@H](C2)N(C)CC3 | > 4 mM (inactive)
NCc1ccc(N2CCOCC2)cc1 | > 4 mM (inactive)
CCC(/C=C/[C@@H](C)[C@H]1CCC2C3CC=C4C[C@@H](O)CC[C@]4(C)C3CC[C@@]21C)C(C)C (stereo not given in full) | > 4 mM (inactive)
Cc1ccccc1NC(=O)/C=C\C(N)=O | > 4 mM (inactive)

SMILES | Kd
O=C(O)c1ccc2c(c1)OCO2 | > 4 mM (inactive)
CCn1c(-c2ccccc2)n[nH]c1=S | > 4 mM (inactive)
N#Cc1cc2c(nc1SCc1ccncc1)CCC2 | > 4 mM (inactive)
O=C(O)c1cncc(-c2ccccc2)c1 | > 4 mM (inactive)
CCC(CCC(C)[C@H]1CCC2C3CC=C4C[C@@H](O)CC[C@]4(C)C3CC[C@@]21C)C(C)C (stereo not given in full) | > 4 mM (inactive)
NC(=O)CS(=O)(=O)c1ccc2ccccc2c1 | > 4 mM (inactive)
CC1(C)C(=O)[C@@H]2O[C@@H]2[C@@]2(C)C1C[C@@H](O)[C@]1(C)C2CC[C@@]2(C)[C@H](c3ccoc3)OC(=O)C3OC321 (stereo not given in full) | > 4 mM (inactive)
OCc1cc(F)cc2c1OCOC2 | > 4 mM (inactive)
O=C(O)CCCC(=O)Nc1nccs1 | > 4 mM (inactive)
O=C(c1ccco1)N1CCN(Cc2cccc(F)c2)CC1 | > 4 mM (inactive)
NC(=O)c1cn(-c2ccccc2)nc1-c1cccnc1 | > 4 mM (inactive)
COC(=O)/C(C)=C\CC12OC(C)(C)C3CC(C=C4C(=O)c5c(OC)c6c(c(CC=C(C)C)c5OC431)OC(C)(CCC=C(C)C)C=C6)C2=O (stereo not given) | > 4 mM (inactive)
NCc1ccc(S(=O)(=O)O)cc1 | > 4 mM (inactive)
COc1cc2c(cc1OC)[C@@H]1C(=O)c3ccc(OC)c(CC=C(C)C)c3O[C@@H]1CO2 | > 4 mM (inactive)
O=C1CCC(=O)N1CN1CCOCC1 | > 4 mM (inactive)
Cc1ccc(NC(=O)C(=O)Nc2ccccn2)cc1 | > 4 mM (inactive)
CC(=O)CC1(O)C(=O)Nc2ccc(Br)cc21 (stereo not given) | > 4 mM (inactive)
O=C(O[C@@H]1Cc2c(O)cc(O)cc2O[C@@H]1c1ccc(O)c(O)c1)c1cc(O)c(O)c(O)c1 | > 4 mM (inactive)
O=C(O)c1cccc2nsnc12 | > 4 mM (inactive)
COc1ccc2[nH]cc(CCNC(C)=O)c2c1 | > 4 mM (inactive)
COc1ccc(/C=N/n2cn[nH]c2=S)cc1 | > 4 mM (inactive)
CNC(=O)c1cc(S(=O)(=O)N(C)C)ccc1Cl | > 4 mM (inactive)
c1ccc(CCc2nc(-c3ccccn3)no2)cc1 | > 4 mM (inactive)

SMILES | Kd
CC(=O)c1csc(-c2cc(C)on2)n1 | > 4 mM (inactive)
CN1C(=O)c2ccc(N=C3NC(=O)CS3)cc2C1=O | > 4 mM (inactive)
Cc1c(O)c(O)cc2c1CC=C1[C@@]2(C)CC[C@@]2(C)C3C[C@](C)(C(=O)O)CC[C@]3(C)CC[C@]12C (stereo not given in full) | > 4 mM (inactive)
NC(=O)c1sc2ccccc2c1Cl | > 4 mM (inactive)
NC(=O)C(=O)Nc1nc(-c2ccccc2)cs1 | > 4 mM (inactive)
CC(C)Nc1ncnc2c1nnn2C | > 4 mM (inactive)
O=C(CN1C(=O)c2cccc3cccc(c23)C1=O)NO | > 4 mM (inactive)
CS(=O)(=O)c1ccc2nc(N)sc2c1 | > 4 mM (inactive)
CC(=O)N(c1ccccc1)C1C=CS(=O)(=O)C1 (stereo not given) | > 4 mM (inactive)
NC1=NC(=O)/C(=C\c2ccco2)S1 | > 4 mM (inactive)
N#CCCn1c(=O)oc2ccccc21 | > 4 mM (inactive)
NC(CC(=O)O)c1ccccc1 (stereo not given) | > 4 mM (inactive)
CNCc1ccccc1 | > 4 mM (inactive)
CN1CCN(c2cc(=O)n(C)c(=O)[nH]2)CC1 | > 4 mM (inactive)
CN1C(=O)Cc2cc(S(N)(=O)=O)ccc21 | > 4 mM (inactive)
O=C(O)c1csc(-c2ccccc2)n1 | > 4 mM (inactive)
COC(=O)CSc1ncnc2c(C)csc12 | > 4 mM (inactive)
Nc1cc(F)cc(F)c1 | > 4 mM (inactive)
CC1CCN(C(=S)c2ccccc2O)CC1 | > 4 mM (inactive)
Cc1nn2c(=O)/c(=C/c3cccc(F)c3)sc2nc1=O | > 4 mM (inactive)
Cn1[nH]c(C(F)(F)F)cc1=O | > 4 mM (inactive)
NC(=O)CN1CC(=O)NC(=O)C1 | > 4 mM (inactive)
Cn1cc(Cl)c(C(=O)NC2CCCCCC2)n1 | > 4 mM (inactive)
